According to ChEMBL document CHEMBL1146954, “Design and synthesis of 7H-pyrrolo[2,3-d]pyrimidines as focal adhesion kinase inhibitors. Part 1” (Bioorg Med Chem Lett, 2006):

Target: Focal adhesion kinase 1 (Homo sapiens, UniProt Q05397)
Experiment: Inhibitory activity against FAK

Chain of Focal adhesion kinase 1 (Q05397 whole entry): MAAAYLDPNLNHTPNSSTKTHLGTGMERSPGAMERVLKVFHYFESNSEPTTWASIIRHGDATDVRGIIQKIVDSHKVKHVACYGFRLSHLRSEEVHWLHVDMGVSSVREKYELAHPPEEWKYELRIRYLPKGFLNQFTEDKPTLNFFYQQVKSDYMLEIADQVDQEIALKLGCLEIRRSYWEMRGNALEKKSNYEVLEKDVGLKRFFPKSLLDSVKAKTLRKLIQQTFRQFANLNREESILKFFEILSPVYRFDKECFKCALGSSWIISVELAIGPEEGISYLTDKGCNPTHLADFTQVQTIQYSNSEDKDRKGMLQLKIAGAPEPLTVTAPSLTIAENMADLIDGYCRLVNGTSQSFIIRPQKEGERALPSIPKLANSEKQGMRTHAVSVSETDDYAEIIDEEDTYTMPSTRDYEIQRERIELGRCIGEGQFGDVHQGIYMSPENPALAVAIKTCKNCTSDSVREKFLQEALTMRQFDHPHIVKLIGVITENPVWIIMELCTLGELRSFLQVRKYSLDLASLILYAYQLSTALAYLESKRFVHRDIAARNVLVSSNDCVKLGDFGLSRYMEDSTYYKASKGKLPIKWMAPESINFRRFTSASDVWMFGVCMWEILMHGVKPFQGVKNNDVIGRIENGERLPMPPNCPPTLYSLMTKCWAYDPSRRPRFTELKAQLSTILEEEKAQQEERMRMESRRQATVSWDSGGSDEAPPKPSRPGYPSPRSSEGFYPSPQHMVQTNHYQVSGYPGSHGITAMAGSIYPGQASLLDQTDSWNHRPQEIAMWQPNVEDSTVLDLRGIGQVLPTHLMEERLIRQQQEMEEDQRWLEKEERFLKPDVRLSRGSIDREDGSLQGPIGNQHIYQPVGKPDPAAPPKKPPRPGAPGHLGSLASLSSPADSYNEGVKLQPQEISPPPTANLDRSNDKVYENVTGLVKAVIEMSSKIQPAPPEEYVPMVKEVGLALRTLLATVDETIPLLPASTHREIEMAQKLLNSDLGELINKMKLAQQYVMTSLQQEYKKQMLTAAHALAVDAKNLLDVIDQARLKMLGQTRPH

Structure (SMILES): COc1cc(Nc2ncc3ccn(-c4ccccn4)c3n2)cc(OC)c1OC
- IC50: 200 nM

Structure (SMILES): COc1cc(Nc2ncc(Br)c(Nc3ccccn3)n2)cc(OC)c1OC
- IC50: 100 nM
